Laboratory results reported in US12043600B2, “Microbiocidal compounds” (SYNGENTA CROP PROTECTION AG, priority 2018, dated 2024).

Legend:
[1] = system: Mycosphaerella arachidis (Cercospora arachidicola); assay: Mycosphaerella arachidis (Cercospora arachidicola)/Liquid Culture (Early Leaf Spot); type: cell-based; settings: liquid culture, compared to untreated control
Protocol: (§1) Conidia of the fungus from cryogenic storage are directly mixed into nutrient broth (PDB potato dextrose broth). After placing a (DMSO) solution of test compound into a microtiter plate (96-well format), the nutrient broth containing the fungal spores is added.

[2] = system: Glomerella lagenarium (Colletotrichum lagenarium); assay: Glomerella lagenarium (Colletotrichum lagenarium)/Liquid Culture (Anthracnose); type: cell-based; settings: Colletotrichum orbiculare, liquid culture, compared to untreated control
[3] = system: Botryotinia fuckeliana (Botrytis cinerea); assay: Botryotinia fuckeliana (Botrytis cinerea)/Liquid Culture (Gray Mould); type: cell-based; settings: liquid culture, compared to untreated control
Protocol: Conidia of the fungus from cryogenic storage are directly mixed into nutrient broth (Vogels broth). After placing a (DMSO) solution of test compound into a microtiter plate (96-well format), the nutrient broth containing the fungal spores is added.

[4] = system: Monographella nivalis (Microdochium nivale); assay: Monographella nivalis (Microdochium nivale)/Liquid Culture (Foot Rot Cereals); type: cell-based; settings: liquid culture, compared to untreated control
Protocol: as §1

[5] = system: Mycosphaerella graminicola (Septoria tritici); assay: Mycosphaerella graminicola (Septoria tritici)/Liquid Culture (Septoria Blotch); type: cell-based; settings: Zymoseptoria tritici; 20 ppm; liquid culture; compared to untreated control
Protocol: Conidia of the fungus from cryogenic storage are directly mixed into nutrient broth (PDB potato dextrose broth). After placing a (DMSO) solution of test compound into a microtiter plate (96-well format), the nutrient broth containing the fungal spores is added. […] The data are presented as the percentage of disease control of each compound for the biological tests against G. lagenarium (Example B3), P. recondita preventative (Example B13), P. teres (Example B15) and M. graminicola (Example B19) as described above. The testing rates of each biological test is specifically described in table C1 below.

[6] = system: Puccinia recondita f. sp. tritici; assay: Puccinia recondita f. sp. tritici/Wheat/Leaf Disc Preventative (Brown Rust); type: in vivo; settings: foliar, 200 ppm, wheat leaf disc preventative, compared to untreated control, read-out: control of Puccinia recondita f. sp. tritici
[7] = system: Phytophthora infestans; assay: whole plant or invertebrate; type: in vivo; settings: in Solanum lycopersicum, foliar, read-out: control of Phytophthora infestans
[8] = system: Magnaporthe grisea (Pyricularia oryzae); assay: whole plant or invertebrate; type: in vivo; settings: foliar, read-out: control of Magnaporthe grisea
[9] = system: Phaeosphaeria nodorum (Septoria nodorum); assay: Phaeosphaeria nodorum (Septoria nodorum)/Wheat/Leaf Disc Preventative (Glume Blotch); type: in vivo; settings: Parastagonospora nodorum, foliar, wheat leaf disc preventative, compared to untreated control
Protocol: Wheat leaf segments cv. Kanzler are placed on agar in a multiwell plate (24-well format) and sprayed with the formulated test compound diluted in water. The leaf disks are inoculated with a spore suspension of the fungus 2 days after application. The inoculated test leaf disks are incubated at 20° C. and 75% rh under a light regime of 12 h light/12 h darkness in a climate cabinet and the activity of a compound is assessed as percent disease control compared to untreated when an appropriate level of disease damage appears in untreated check leaf disks (5-7 days after application).

[10] = system: Plasmopara viticola; assay: whole plant or invertebrate; type: in vivo; settings: foliar, read-out: control of Plasmopara viticola
[11] = system: Phakopsora pachyrhizi; assay: Phakopsora pachyrhizi/Soybean/Preventative (Soybean Rust); type: in vivo; settings: foliar, 288 h, 200 ppm, soybean leaf disc preventative, compared to untreated control, read-out: control of Phakopsora pachyrhizi
[12] = system: Puccinia recondita f. sp. tritici; assay: Puccinia recondita f. sp. tritici/Wheat/Leaf Disc Curative (Brown Rust); type: in vivo; settings: foliar, wheat leaf disc curative, compared to untreated control
Protocol: Wheat leaf segments cv. Kanzler are placed on agar in multiwell plates (24-well format). The leaf segments are inoculated with a spore suspension of the fungus. Plates are stored in darkness at 19° C. and 75% rh. The formulated test compound diluted in water is applied 1 day after inoculation. The leaf segments are incubated at 19° C. and 75% rh under a light regime of 12 h light/12 h darkness in a climate cabinet and the activity of a compound is assessed as percent disease control compared to untreated when an appropriate level of disease damage appears in untreated check leaf segments (6-8 days after application).

[13] = system: Blumeria graminis f. sp. tritici (Erysiphe graminis f. sp. tritici); assay: Blumeria graminis f. sp. tritici/Wheat/Leaf Disc Preventative (Powdery Mildew on Wheat); type: in vivo; settings: foliar, wheat leaf disc preventative, compared to untreated control
Protocol: Wheat leaf segments cv. Kanzler are placed on agar in a multiwell plate (24-well format) and sprayed with the formulated test compound diluted in water. The leaf disks are inoculated by shaking powdery mildew infected plants above the test plates 1 day after application. The inoculated leaf disks are incubated at 20° C. and 60% rh under a light regime of 24 h darkness followed by 12 h light/12 h darkness in a climate chamber and the activity of a compound is assessed as percent disease control compared to untreated when an appropriate level of disease damage appears on untreated check leaf segments (6-8 days after application).

Row | SMILES | inhibition of growth at 20 ppm [1] [%] | inhibition of growth at 20 ppm [2] [%] | inhibition of growth at 20 ppm [3] [%] | inhibition of growth at 20 ppm [4] [%] | inhibition of growth at 20 ppm [5] [%] | pest or weed control at 200 ppm [6] [%] | pest or weed control at 200 ppm [7] [%] | pest or weed control at 200 ppm [8] [%] | pest or weed control at 200 ppm [9] [%] | pest or weed control at 200 ppm [10] [%] | melting point [°C] | pest or weed control at 200 ppm [11] [%] | pest or weed control at 200 ppm [12] [%] | pest or weed control at 200 ppm [13] [%]
1 | CCCc1nn(-c2ccc(C)c(O/C(=C\OC)C(=O)OC)c2)cc1Cl [Compound E-6, methyl (Z)-2-[5-(4-chloro-3-propyl-pyrazol-1-yl)-2-methyl-phenoxy]-3-methoxy-prop-2-enoate] | ≥ 80 | ≥ 80 | ≥ 80 | ≥ 80 | ≥ 80 | ≥ 80 | ≥ 80 | ≥ 80 | ≥ 80 | ≥ 80 |  |  |  | 
2 | CO/C=C(\Oc1cc(-n2ccc(CC#N)n2)ccc1C)C(=O)OC [Compound E-33, methyl (Z)-2-[5-[3-(cyanomethyl)pyrazol-1-yl]-2-methyl-phenoxy]-3-methoxy-prop-2-enoate] | ≥ 80 | ≥ 80 | ≥ 80 | ≥ 80 | ≥ 80 | ≥ 80 |  |  |  | ≥ 80 | 120 to 123 |  |  | 
3 | CO/C=C(\Oc1cc(-n2ccc(C)n2)c(OC)cc1C)C(=O)OC [Compound E-37, methyl (Z)-3-methoxy-2-[4-methoxy-2-methyl-5-(3-methylpyrazol-1-yl)phenoxy]prop-2-enoate] | ≥ 80 |  | ≥ 80 | ≥ 80 | ≥ 80 | ≥ 80 |  |  |  | ≥ 80 | 99 to 101 | ≥ 50 | ≥ 80 | 
4 | CO/C=C(\Oc1cc(-n2cc(Br)cn2)ccc1C)C(=O)OC [Compound E-47, methyl (Z)-2-[5-(4-bromopyrazol-1-yl)-2-methyl-phenoxy]-3-methoxy-prop-2-enoate] | ≥ 80 | ≥ 80 | ≥ 80 | ≥ 80 | ≥ 80 | ≥ 80 | ≥ 80 | ≥ 80 | ≥ 80 | ≥ 80 |  | ≥ 50 | ≥ 80 | ≥ 80
5 | CO/C=C(\Oc1cc(-n2cc(C(C)(C)C)cn2)ccc1C)C(=O)OC [Compound E-49, methyl (Z)-2-[5-(4-tert-butylpyrazol-1-yl)-2-methyl-phenoxy]-3-methoxy-prop-2-enoate] | ≥ 80 | ≥ 80 | ≥ 80 | ≥ 80 | ≥ 80 | ≥ 80 | ≥ 80 | ≥ 80 | ≥ 80 | ≥ 80 |  |  | ≥ 80 | 
6 | CO/C=C(\Oc1cc(-n2cc(COC)cn2)ccc1C)C(=O)OC [Compound E-51, methyl (Z)-3-methoxy-2-[5-[4-(methoxymethyl)pyrazol-1-yl]-2-methyl-phenoxy]prop-2-enoate] | ≥ 80 | ≥ 80 | ≥ 80 | ≥ 80 | ≥ 80 | ≥ 80 |  | ≥ 80 |  | ≥ 80 |  | ≥ 50 | ≥ 80 | ≥ 80
7 | CO/C=C(\Oc1cc(-n2ccc(SC(F)(F)F)n2)ccc1C)C(=O)OC [Compound E-61, methyl (Z)-3-methoxy-2-[2-methyl-5-[3-(trifluoromethylsulfanyl)pyrazol-1-yl]phenoxy]prop-2-enoate] | ≥ 80 | ≥ 80 | ≥ 80 | ≥ 80 | ≥ 80 | ≥ 80 | ≥ 80 | ≥ 80 |  | ≥ 80 | 137 to 139 | ≥ 50 |  | ≥ 80
8 | CO/C=C(\Oc1cc(-n2ccc(OC)n2)ccc1C)C(=O)OC [Compound E-95, methyl (Z)-3-methoxy-2-[5-(3-methoxypyrazol-1-yl)-2-methyl-phenoxy]prop-2-enoate] | ≥ 80 | ≥ 80 | ≥ 80 | ≥ 80 | ≥ 80 | ≥ 80 | ≥ 80 |  |  | ≥ 80 | 120 to 123 |  | ≥ 80 | ≥ 80
9 | CO/C=C(\Oc1cc(-n2ccc(C(F)F)n2)ccc1C)C(=O)OC [Compound E-96, methyl (Z)-2-[5-[3-(difluoromethyl)pyrazol-1-yl]-2-methyl-phenoxy]-3-methoxy-prop-2-enoate] | ≥ 80 | ≥ 80 | ≥ 80 | ≥ 80 | ≥ 80 | ≥ 80 | ≥ 80 |  | ≥ 80 | ≥ 80 |  |  | ≥ 80 | ≥ 80
10 | CO/C=C(\Oc1cc(-n2ccc(Cl)n2)ccc1C)C(=O)OC [Compound E-100, methyl (Z)-2-[5-(3-chloropyrazol-1-yl)-2-methyl-phenoxy]-3-methoxy-prop-2-enoate] | ≥ 80 | ≥ 80 | ≥ 80 | ≥ 80 | ≥ 80 | ≥ 80 | ≥ 80 | ≥ 80 | ≥ 80 | ≥ 80 | 150 to 152 |  |  | ≥ 80
11 | CO/C=C(\Oc1cc(-n2cc(C)c(C)n2)ccc1C)C(=O)OC [Compound E-116, methyl (Z)-2-[5-(3,4-dimethylpyrazol-1-yl)-2-methyl-phenoxy]-3-methoxy-prop-2-enoate] | ≥ 80 | ≥ 80 | ≥ 80 | ≥ 80 | ≥ 80 | ≥ 80 | ≥ 80 |  |  | ≥ 80 | 155 to 157 |  | ≥ 80 | ≥ 80
